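All cell lines were grown in 96-well plates and treated with compound for 48 hours. Abbreviation: GI50, concentration required for 50% inhibition of growth.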 The source made the active and inactive calls. Cut-off read from the data, not from the text of the source: active = GI50 up to about 1.1 µM and inactive = higher. Square brackets hold non-standard residues; d marks the D form. Peptide text beside a SMILES is read from it. ξ: configuration not given here. ξ2Thi = NC(Cc1cccs1)C(=O)O; ξR = N=C(N)NCCCC(N)C(=O)O; ξI = CCC(C)C(N)C(=O)O; ξL = CC(C)CC(N)C(=O)O; ξK = NCCCCC(N)C(=O)O; ξT = CC(O)C(N)C(=O)O; ξA = CC(N)C(=O)O
How the values were obtained:
Test in all cases: NCI tumour cell line growth inhibition, 48 h
HT-29 = tested on: HT-29
OVCAR-3 = tested on: OVCAR-3
COLO 205 = tested on: COLO 205
A498 = tested on: A498
SNB-19 = tested on: SNB-19
NCI-H522 = tested on: NCI-H522
SK-OV-3 = tested on: SK-OV-3
SK-MEL-2 = tested on: SK-MEL-2
NCI-H460 = tested on: NCI-H460
Hs-578T = tested on: Hs-578T
BT-549 = tested on: BT-549
SR = tested on: SR
ACHN = tested on: ACHN
DU-145 = tested on: DU-145
HOP-62 = tested on: HOP-62
SK-MEL-28 = tested on: SK-MEL-28
MDA-N = tested on: MDA-N
OVCAR-8 = tested on: OVCAR-8
MOLT-4 = tested on: MOLT-4
TK-10 = tested on: TK-10
OVCAR-4 = tested on: OVCAR-4
Malme-3M = tested on: Malme-3M
CAKI-1 = tested on: CAKI-1
RPMI-8226 = tested on: RPMI-8226
SNB-75 = tested on: SNB-75
K562 = tested on: K562
UACC-62 = tested on: UACC-62
SK-MEL-5 = tested on: SK-MEL-5
NCI-H226 = tested on: NCI-H226
UO-31 = tested on: UO-31
HCT-15 = tested on: HCT-15
SF-539 = tested on: SF-539
EKVX = tested on: EKVX
IGROV-1 = tested on: IGROV-1
NCI-H23 = tested on: NCI-H23
SN12C = tested on: SN12C
MCF7 = tested on: MCF7
RXF 393 = tested on: RXF 393
HCT-116 = tested on: HCT-116
OVCAR-5 = tested on: OVCAR-5
HOP-92 = tested on: HOP-92
HCC 2998 = tested on: HCC 2998
A549 = tested on: A549
SW-620 = tested on: SW-620
NCI/ADR-RES = tested on: NCI/ADR-RES
CCRF-CEM = tested on: CCRF-CEM
T47D = tested on: T47D
MDA-MB-231 = tested on: MDA-MB-231
SF-268 = tested on: SF-268
UACC-257 = tested on: UACC-257
MDA-MB-435 = tested on: MDA-MB-435
SF-295 = tested on: SF-295
U-251 = tested on: U-251
PC-3 = tested on: PC-3
LOX IMVI = tested on: LOX IMVI
786-0 = tested on: 786-0
KM12 = tested on: KM12
M14 = tested on: M14
HL-60 = tested on: HL-60

Measured: GI50

O=S(=O)(c1ccccc1)C1CC(c2nc3ccccc3[nH]2)=NO1 (centres undefined)
inactive: HT-29 > 100 µM | OVCAR-3 89.9 µM | COLO 205 37.3 µM | A498 43 µM | SNB-19 > 100 µM | NCI-H522 28.6 µM | SK-OV-3 > 100 µM | SK-MEL-2 > 100 µM | NCI-H460 50.1 µM | Hs-578T > 100 µM | BT-549 > 100 µM | SR 29.3 µM | ACHN > 100 µM | DU-145 > 100 µM | HOP-62 > 100 µM | SK-MEL-28 > 100 µM | MDA-N > 100 µM | OVCAR-8 > 100 µM | MOLT-4 39.1 µM | TK-10 74.8 µM | OVCAR-4 > 100 µM | Malme-3M 8.26 µM | CAKI-1 97.7 µM | RPMI-8226 28.1 µM | SNB-75 > 100 µM | K562 31.6 µM | UACC-62 > 100 µM | SK-MEL-5 70.3 µM | NCI-H226 > 100 µM | UO-31 > 100 µM | SF-539 51.4 µM | EKVX 84.9 µM | IGROV-1 16.6 µM | NCI-H23 > 100 µM | SN12C > 100 µM | MCF7 53.3 µM | RXF 393 83 µM | HCT-116 52.6 µM | OVCAR-5 > 100 µM | HOP-92 80.4 µM | HCC 2998 > 100 µM | A549 > 100 µM | SW-620 43.8 µM | NCI/ADR-RES > 100 µM | CCRF-CEM 21.8 µM | T47D > 100 µM | MDA-MB-231 > 100 µM | SF-268 > 100 µM | UACC-257 > 100 µM | MDA-MB-435 72.3 µM | SF-295 > 100 µM | U-251 > 100 µM | PC-3 > 100 µM | LOX IMVI > 100 µM
51.3 µM: HCT-15

CCC(C)C(NC(=O)C(Cc1cccs1)NC(=O)C(CC(C)C)NC(=O)C(CC(C)C)NC(=O)C(CCCCN)NC(=O)C(CCCN=C(N)N)NC(=O)[C@H](Cc1ccc(O)cc1)NC(=O)C(NC(=O)C(C)NC(=O)C(N)CC(C)C)C(C)O)C(=O)NC(CC(C)C)C(N)=O (some centres undefined) (H-[ξL][ξA][ξT]Y[ξR][ξK][ξL][ξL][ξ2Thi][ξI][ξL]-NH2)
inactive: HT-29 > 50 µM | OVCAR-3 > 50 µM | COLO 205 > 50 µM | A498 > 50 µM | SNB-19 > 50 µM | NCI-H522 > 50 µM | SK-OV-3 > 50 µM | NCI-H460 > 50 µM | Hs-578T > 50 µM | BT-549 > 50 µM | SR > 50 µM | ACHN > 50 µM | DU-145 > 50 µM | HOP-62 > 50 µM | SK-MEL-28 > 50 µM | MDA-N > 50 µM | OVCAR-8 > 50 µM | MOLT-4 > 50 µM | TK-10 > 50 µM | OVCAR-4 > 50 µM | Malme-3M > 50 µM | CAKI-1 > 50 µM | RPMI-8226 > 50 µM | SNB-75 > 50 µM | K562 > 50 µM | UACC-62 > 50 µM | SK-MEL-5 > 50 µM | NCI-H226 > 50 µM | UO-31 > 50 µM | SF-539 > 50 µM | EKVX > 50 µM | NCI-H23 > 50 µM | SN12C > 50 µM | MCF7 > 50 µM | RXF 393 > 50 µM | HCT-116 > 50 µM | 786-0 > 50 µM | OVCAR-5 > 50 µM | HCC 2998 > 50 µM | A549 > 50 µM | SW-620 > 50 µM | NCI/ADR-RES > 50 µM | CCRF-CEM > 50 µM | T47D > 50 µM | MDA-MB-231 > 50 µM | KM12 > 50 µM | SF-268 > 50 µM | UACC-257 > 50 µM | MDA-MB-435 > 50 µM | SF-295 > 50 µM | M14 > 50 µM | U-251 > 50 µM | PC-3 > 50 µM | LOX IMVI > 50 µM
> 50 µM: HCT-15

NNC(N)Nc1ccccc1 (centres undefined)
> 100 µM: HCT-15
inactive: HT-29 > 100 µM | OVCAR-3 > 100 µM | COLO 205 > 100 µM | A498 > 100 µM | SNB-19 > 100 µM | NCI-H522 > 100 µM | SK-OV-3 > 100 µM | HL-60 > 100 µM | SK-MEL-2 > 100 µM | NCI-H460 > 100 µM | Hs-578T > 100 µM | BT-549 > 100 µM | SR > 100 µM | ACHN > 100 µM | DU-145 > 100 µM | HOP-62 > 100 µM | SK-MEL-28 > 100 µM | MDA-N > 100 µM | OVCAR-8 > 100 µM | MOLT-4 > 100 µM | TK-10 > 100 µM | OVCAR-4 > 100 µM | Malme-3M > 100 µM | CAKI-1 > 100 µM | K562 > 100 µM | UACC-62 > 100 µM | SK-MEL-5 > 100 µM | NCI-H226 > 100 µM | UO-31 > 100 µM | SF-539 > 100 µM | EKVX > 100 µM | IGROV-1 > 100 µM | NCI-H23 > 100 µM | SN12C > 100 µM | MCF7 > 100 µM | RXF 393 > 100 µM | OVCAR-5 > 100 µM | HOP-92 > 100 µM | HCC 2998 > 100 µM | A549 > 100 µM | SW-620 > 100 µM | NCI/ADR-RES > 100 µM | CCRF-CEM > 100 µM | T47D > 100 µM | MDA-MB-231 > 100 µM | KM12 > 100 µM | SF-268 > 100 µM | UACC-257 > 100 µM | MDA-MB-435 > 100 µM | SF-295 > 100 µM | M14 > 100 µM | U-251 > 100 µM | PC-3 > 100 µM

From ChEMBL document CHEMBL1201862, “PubChem BioAssay data set” (2004)
